Data set [1] relates to patients with hemiplegia attributed to cerebrovascular disease (stroke), onset of RSD (shoulder-hand syndrome). In words: Test of prevention of onset of post-stroke RSD. The class given is in vivo, humans. The text has this:
Test subjects were 33 patients with hemiplegia attributed to cerebrovascular disease (stroke) at Brunnstrom stage III or lower in either the upper limb or a finger on admission. Patients already developing RSD (shoulder-hand syndrome) on admission and patients with pain in the shoulder joint or swollen paralyzed limbs were excluded from the test. […] On the other hand, 21 test subjects were classified into a rehabilitation alone group (control group) and compared with the EL administration group. Physical therapy and therapeutic exercise, occupational therapy, and the management of the paralyzed limbs were performed thoroughly in all the cases. […] EL administration was initiated 11 to 59 days after an attack of stroke (25.8 days on average) and continued until 5 months after the attack of stroke. The same observation period was applied to the control group. The test subjects were diagnosed as developing RSD (shoulder-hand syndrome) if they had diffuse pain not localized to the shoulder joint, edema involving skin color changes, skin temperature abnormalities, and range of motion limitations, and the practice of their rehabilitation was restricted. These criteria agreed to Veldmnan's diagnostic criteria or diagnostic criteria for CRPS-type 1 provided by the International Association for the Study of Pain.
Activities of daily living (ADL) were evaluated on the basis of the Barthel Index (BI) and the range of motion (ROM) of shoulder joint. The movable range of shoulder joint (also referred to as “shoulder ROM”) was regarded as restricted (Shoulder-ROM-restrictions were present.) if either abduction or flexion was restricted in measurement. The test subjects were also examined for sensory impairment, aphasia, and unilateral spatial neglect on admission.
Statistical analysis was conducted with unpaired t-test, Fisher's exact test or Wilcoxon test, and 5% or lower significance level was regarded as being significant.

Data set [2] concerns patients with hemiplegia attributed to cerebrovascular disease (stroke) who developed RSD (shoulder-hand syndrome). In words: Test of treatment of post-stroke RSD (therapeutic administration after onset). The class given is in vivo, humans. The conditions noted are these: therapeutic administration group (11 patients), at completion of administration. Here is the method: EL was administered after the onset of RSD (shoulder-hand syndrome) in the same use and dose as in Example 1 to 11 patients with hemiplegia attributed to cerebrovascular disease (stroke) at Brunnstrom stage III or lower in either the upper limb or a finger on admission, who developed RSD (shoulder-hand syndrome). These patients were classified into a therapeutic administration group. On the other hand, the EL administration group of Example 1 was compared as a control (preventive administration group) with the therapeutic administration group.

Data set [3] concerns RSD triggered and developed by a trauma or surgical invasion. The conditions noted are these: clinical, literature; cited from earlier work.
For data set [4] the following is noted: in vivo; cited from earlier work.
Setting [5] is: EL preventive administration group (12 cases), 20 units i.m. once a week until 5 months after stroke.

Turning to “1-butyric acid-7-(L-2-aminobutyric acid)-26-L-aspartic acid-27-L-valine-29-L-alanine-calcitonin [elcatonin]”, the “Incidence converted to incidence in all patients with hemiplegia attributed to stroke in the facility” value in data set [1] (EL administration group) was “approximately 1.3%”. For the same compound, the “Incidence of RSD” value in data set [1] (EL administration initiated within 48 days after stroke) was 0%. For the same compound, in data set [1] (setting [5]), the “The number of test subjects developing post-stroke RSD: Developed” value is 1 and the “The number of test subjects developing post-stroke RSD: Not developed” value is 11. The “Incidence of RSD (cases developed RSD)” value in data set [1] (EL preventive administration group, 12 cases) is given as 8.3%. Further, the “Incidence of RSD until discharge versus unadministered patient group” value in data set [1] (repetitive administration to stroke hemiplegia patients without RSD on admission) was “suppressed significantly and remarkably”. For the same compound, the “No RSD, the number of persons” value in data set [2] is listed as 0.
With `O=C1O[C@H]([C@@H](O)CO)C(O)=C1O` [vitamin C], the “Preventive effect on the initial onset of RSD after trauma or surgical invasion” value in data set [3] is “preventive effect”.
In the case of salmon calcitonin, the “Dose of oral administration agent relative to dose of drip infusion in vein” value in data set [4] is listed as “approximately 60 times”.

The values are drawn from US7919460B2, “Method for prophylaxis of reflex sympathetic dystrophy after stroke” (Asahi Kasei Pharma Corporation, priority 2006, dated 2011).
